Structures can show the parent of a compound that is named as a salt.
Experiment: Serial tail vein bleed PK study in SD rats: methylone measured in plasma after IV or oral methylone or oral methylone prodrugs
Assay type: in vivo, Sprague Dawley rats
Conditions: 10 mg/kg, rat
Procedure: A pharmacokinetic (PK) study was performed in three male Sprague-Dawley (SD) rats following intravenous (IV) and oral (PO) administration of methylone at 1 mg/kg (IV) and 10 mg/kg (PO) respectively, or test compounds (prodrugs of methylone) at 10 mg/kg (PO). Parent compound (methylone) was measured in plasma.
Samples were sent for method optimization and measurement of parent compound (methylone) via unique calibration lines and following acceptance QC's. Dose formulation concentrations were also measured, and PK parameters were determined (Cmax (ng/mL), Tmax (hr), Cl (ml/min/kg), Vdss (L/kg), t½(hr), AUC0-t (ng/mL*hr), AUC0-inf (ng/mL*hr), MIRT (hr), Bioavailability ([…]) where warranted) using WinNon Lin software. Data (including bioanalytical results and assay performance) were reported in a tabulated format.
Formulation for PO Administration: For PO dosing, the prodrug was formulated in 10% DMSO/20% PEG400/70% water to a concentration of 2 mg free metabolite material/mL. This provided a dose of 10 mg free metabolite/kg when the prodrug was administered PO in 5 mL/kg dosing volumes.
Formulation for IV administration: For IV dosing, rac-methylone was formulated as solution in saline to a concentration of 0.5 mg free metabolite material/mL. This provided a dose of 1 mg free metabolite/kg when administered IV in 2 mL/kg dosing volumes.
The pharmacokinetic properties of the synthesized methylone prodrugs after oral administration in a rat model were assessed. The concentration of methylone was measured in each rat at various sampling timepoints after IV or oral administration of rac-methylone or the synthesized methylone prodrugs to rats.
Dose formulations were made at equivalent concentrations of active compound (methylone) adjusted for molecular weight of the compounds. The synthesized methylone prodrugs or analogs were dosed at 10 mg/kg oral (PO) nominal dose. Nominal doses were used in PK parameter determinations. The parent compound (methylone) was dosed at 1 mg/kg intravenous (IV) and 10 mg/kg (PO).

[1] = 0.500 h after oral dosing of the prodrug, individual animals
[2] = 0.500 h after oral dosing of the prodrug, mean
[3] = 1.00 h after oral dosing of the prodrug, individual animals
[4] = 1.00 h after oral dosing of the prodrug, mean
[5] = 2.00 h after oral dosing of the prodrug, individual animals
[6] = 2.00 h after oral dosing of the prodrug, mean
[7] = 4.00 h after oral dosing of the prodrug, individual animals
[8] = 4.00 h after oral dosing of the prodrug, mean
[9] = 7.00 h after oral dosing of the prodrug, individual animals
[10] = 7.00 h after oral dosing of the prodrug, mean
[11] = 24.0 h after oral dosing of the prodrug, individual animals
[12] = 24.0 h after oral dosing of the prodrug, mean

Row | Compound | Plasma Concentrations of metabolite methylone [1] | Plasma Concentrations of metabolite methylone [2] | Plasma Concentrations of metabolite methylone [3] | Plasma Concentrations of metabolite methylone [4] | Plasma Concentrations of metabolite methylone [5] | Plasma Concentrations of metabolite methylone [6] | Plasma Concentrations of metabolite methylone [7] | Plasma Concentrations of metabolite methylone [8] | Plasma Concentrations of metabolite methylone [9] | Plasma Concentrations of metabolite methylone [10] | Plasma Concentrations of metabolite methylone [11] | Plasma Concentrations of metabolite methylone [12]
1 | CC(C(=O)c1ccc2c(c1)OCO2)N(C)C(=O)CCCC(=O)OC(C)(C)C (stereo not drawn) [Compound 3C, tert-Butyl 4-{[2-(2H-1,3-benzodioxol-5-yl)-1-methyl-2-oxo-ethyl]-N-methylcarbamoyl}butyrate] | BLQ (Below Lower Limit of Quantification (0.5 ng/mL)) | BLQ (Below Lower Limit of Quantification (0.5 ng/mL)) | BLQ (Below Lower Limit of Quantification (0.5 ng/mL)) | BLQ (Below Lower Limit of Quantification (0.5 ng/mL)) | BLQ (Below Lower Limit of Quantification (0.5 ng/mL)) | BLQ (Below Lower Limit of Quantification (0.5 ng/mL)) | BLQ (Below Lower Limit of Quantification (0.5 ng/mL)) | BLQ (Below Lower Limit of Quantification (0.5 ng/mL)) | BLQ (Below Lower Limit of Quantification (0.5 ng/mL)) | BLQ (Below Lower Limit of Quantification (0.5 ng/mL)) | BLQ (Below Lower Limit of Quantification (0.5 ng/mL)) | BLQ (Below Lower Limit of Quantification (0.5 ng/mL))
2 | CC(C(=O)c1ccc2c(c1)OCO2)N(C)C(=O)[C@H](CCCCNC(=O)OC(C)(C)C)NC(=O)OC(C)(C)C (stereo partly drawn) [Compound 3E, tert-Butyl N-[(5S)-6-[[2-(1,3-benzodioxol-5-yl)-1-methyl-2-oxo-ethyl]-methyl-amino]-5-(tert-butoxycarbonylamino)-6-oxo-hexyl]carbamate] | BLQ (Below Lower Limit of Quantification (0.5 ng/mL)) | BLQ (Below Lower Limit of Quantification (0.5 ng/mL)) | BLQ (Below Lower Limit of Quantification (0.5 ng/mL)) | BLQ (Below Lower Limit of Quantification (0.5 ng/mL)) | BLQ (Below Lower Limit of Quantification (0.5 ng/mL)) | BLQ (Below Lower Limit of Quantification (0.5 ng/mL)) | BLQ (Below Lower Limit of Quantification (0.5 ng/mL)) | BLQ (Below Lower Limit of Quantification (0.5 ng/mL)) | BLQ (Below Lower Limit of Quantification (0.5 ng/mL)) | BLQ (Below Lower Limit of Quantification (0.5 ng/mL)) | BLQ (Below Lower Limit of Quantification (0.5 ng/mL)) | BLQ (Below Lower Limit of Quantification (0.5 ng/mL))
3 | CC1C(c2ccc3c(c2)OCO3)=N[C@@H](CCCCN)C(=O)N1C (stereo partly drawn) [Compound 4A, dihydrochloride] | BLQ (Below Lower Limit of Quantification (0.5 ng/mL)) | BLQ (Below Lower Limit of Quantification (0.5 ng/mL)) | BLQ (Below Lower Limit of Quantification (0.5 ng/mL)) | BLQ (Below Lower Limit of Quantification (0.5 ng/mL)) | BLQ (Below Lower Limit of Quantification (0.5 ng/mL)) | BLQ (Below Lower Limit of Quantification (0.5 ng/mL)) | BLQ (Below Lower Limit of Quantification (0.5 ng/mL)) | BLQ (Below Lower Limit of Quantification (0.5 ng/mL)) | BLQ (Below Lower Limit of Quantification (0.5 ng/mL)) | BLQ (Below Lower Limit of Quantification (0.5 ng/mL)) | BLQ (Below Lower Limit of Quantification (0.5 ng/mL)) | BLQ (Below Lower Limit of Quantification (0.5 ng/mL))
4 | CC(C(=O)c1ccc2c(c1)OCO2)N(C)C(=O)CCCC(=O)O (stereo not drawn) [Compound 8D, 4-{[2-(2H-1,3-Benzodioxol-5-yl)-1-methyl-2-oxo-ethyl]-N-methylcarbamoyl}butyric acid] | BLQ (Below Lower Limit of Quantification (0.5 ng/mL)) | BLQ (Below Lower Limit of Quantification (0.5 ng/mL)) | BLQ (Below Lower Limit of Quantification (0.5 ng/mL)) | BLQ (Below Lower Limit of Quantification (0.5 ng/mL)) | BLQ (Below Lower Limit of Quantification (0.5 ng/mL)) | BLQ (Below Lower Limit of Quantification (0.5 ng/mL)) | BLQ (Below Lower Limit of Quantification (0.5 ng/mL)) | BLQ (Below Lower Limit of Quantification (0.5 ng/mL)) | BLQ (Below Lower Limit of Quantification (0.5 ng/mL)) | BLQ (Below Lower Limit of Quantification (0.5 ng/mL)) | BLQ (Below Lower Limit of Quantification (0.5 ng/mL)) | BLQ (Below Lower Limit of Quantification (0.5 ng/mL))
5 | CC(C(=O)c1ccc2c(c1)OCO2)N(C)C(=O)N1CCC(N2CCCCC2)CC1 (stereo not drawn) [Compound 9A, N-[2-(1,3-Benzodioxol-5-yl)-1-methyl-2-oxo-ethyl]-N-methyl-4-(1-piperidyl)piperidine-1-carboxamide] | BLQ (Below Lower Limit of Quantification (0.5 ng/mL)) | BLQ (Below Lower Limit of Quantification (0.5 ng/mL)) | BLQ (Below Lower Limit of Quantification (0.5 ng/mL)) | BLQ (Below Lower Limit of Quantification (0.5 ng/mL)) | BLQ (Below Lower Limit of Quantification (0.5 ng/mL)) | BLQ (Below Lower Limit of Quantification (0.5 ng/mL)) | BLQ (Below Lower Limit of Quantification (0.5 ng/mL)) | BLQ (Below Lower Limit of Quantification (0.5 ng/mL)) | BLQ (Below Lower Limit of Quantification (0.5 ng/mL)) | BLQ (Below Lower Limit of Quantification (0.5 ng/mL)) | BLQ (Below Lower Limit of Quantification (0.5 ng/mL)) | BLQ (Below Lower Limit of Quantification (0.5 ng/mL))
6 | COCCOC(=O)N(C)C(C)C(=O)c1ccc2c(c1)OCO2 (stereo not drawn) [PE, 2-Methoxyethyl N-[2-(1,3-benzodioxol-5-yl)-1-methyl-2-oxo-ethyl]-N-methyl-carbamate] | BLQ (Below Lower Limit of Quantification (0.5 ng/mL)) | BLQ (Below Lower Limit of Quantification (0.5 ng/mL)) | BLQ (Below Lower Limit of Quantification (0.5 ng/mL)) | BLQ (Below Lower Limit of Quantification (0.5 ng/mL)) | BLQ (Below Lower Limit of Quantification (0.5 ng/mL)) | BLQ (Below Lower Limit of Quantification (0.5 ng/mL)) | BLQ (Below Lower Limit of Quantification (0.5 ng/mL)) | BLQ (Below Lower Limit of Quantification (0.5 ng/mL)) | BLQ (Below Lower Limit of Quantification (0.5 ng/mL)) | BLQ (Below Lower Limit of Quantification (0.5 ng/mL)) | BLQ (Below Lower Limit of Quantification (0.5 ng/mL)) | BLQ (Below Lower Limit of Quantification (0.5 ng/mL))
